Patent US20240287138A1, “CYCLIC PEPTIDES FOR INHIBITING TNF RECEPTOR 1 ACTIVITY” (Merck Sharp & Dohme LLC, priority 2023, published 2024)
pIC50, pKd: −log10 of the molar value. Like-named read-outs stand apart in the source and are kept apart here. Numbered stars: 1 amine (or outer) side, 2 acyl side, 3 side chain; on linkers, the order of the positions; unused ones are H or OH. Bridge positions count the residues as written; N and C are the ends. Square brackets hold non-standard residues; d marks the D form. Peptide text beside a SMILES is read from it. Trp(βS-Me,7-OMe) = COc1cccc2c([C@H](C)[C@H](N)C(=O)O)c[nH]c12; Trp(βS-Me) = C[C@@H](c1c[nH]c2ccccc12)[C@H](N)C(=O)O; Phe(2-F,4-COOH) = N[C@@H](Cc1ccc(C(=O)O)cc1F)C(=O)O; Ala(indazol-1-yl) = N[C@@H](Cn1ncc2ccccc21)C(=O)O; Trp(7-CN) = N#Cc1cccc2c(C[C@H](N)C(=O)O)c[nH]c12; Trp(7-Cl) = N[C@@H](Cc1c[nH]c2c(Cl)cccc12)C(=O)O; Phe(4-CONH2) = NC(=O)c1ccc(C[C@H](N)C(=O)O)cc1; Phe(4-COOH) = N[C@@H](Cc1ccc(C(=O)O)cc1)C(=O)O; Phe(4-CH2NH2) = NCc1ccc(C[C@H](N)C(=O)O)cc1; X23 = N[C@@H]1CCN([*:1])[C@H](C(=O)[*:2])C1; Pip(5R-OH) = O=C(O)[C@@H]1CC[C@@H](O)CN1; X1 = O=C([C@@H]1CC[C@H](N[*:1])C1)[*:2]; 2Nal = N[C@@H](Cc1ccc2ccccc2c1)C(=O)O; 4Pal = N[C@@H](Cc1ccncc1)C(=O)O; NMeE = CN[C@@H](CCC(=O)O)C(=O)O; dHyp = O=C(O)[C@H]1C[C@H](O)CN1; Cit = NC(=O)NCCC[C@H](N)C(=O)O; αMeS = C[C@](N)(CO)C(=O)O; Nle = CCCC[C@H](N)C(=O)O; Sar = CNCC(=O)O

Key:
[1] = biological target: T1, TNFα-induced NF-κB signal transduction pathway (TNFR1 signaling) in THP-1 cells (Homo sapiens, UniProt P19438); assay: THP-1 Lucia NF-κB reporter cell assay, inhibition of TNFα-induced NF-κB signaling; format: cell-based; conditions: THP-1 NF-κB Lucia reporter cells, 10 ng/mL TNFα, 16-18 h, secreted luciferase; read-out: THP-1 IC50
T1 sequence (P19438 30-455): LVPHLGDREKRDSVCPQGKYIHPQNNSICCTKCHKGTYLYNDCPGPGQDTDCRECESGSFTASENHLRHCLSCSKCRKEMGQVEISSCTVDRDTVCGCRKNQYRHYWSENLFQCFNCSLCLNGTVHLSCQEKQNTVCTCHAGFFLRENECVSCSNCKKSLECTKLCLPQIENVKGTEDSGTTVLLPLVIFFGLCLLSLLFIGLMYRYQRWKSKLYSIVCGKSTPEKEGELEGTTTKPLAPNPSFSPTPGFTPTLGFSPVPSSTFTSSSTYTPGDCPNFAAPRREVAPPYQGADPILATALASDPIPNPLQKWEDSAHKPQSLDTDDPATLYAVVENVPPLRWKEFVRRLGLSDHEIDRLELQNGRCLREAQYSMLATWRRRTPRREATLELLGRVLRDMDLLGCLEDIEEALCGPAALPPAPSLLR
How it was run: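 IC50 from a 4-parameter logistic fit of secreted luciferase luminescence (QUANTI-Luc), normalised to min/max controls. Reporter THP-1 cells were exposed to peptides for 1 h at 37 °C before 10 ng/mL TNFα (final) was added overnight (16–18 h).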

[2] = biological target: T2, human soluble TNFR1 (sTNFR1) (Homo sapiens, UniProt P19438); assay: Human sTNFR1-peptide displacement assay (LanthaScreen Eu TR-FRET binding assay)
T2 construct: made in house; host or cells: Sf21 (baculovirus)
T2 sequence (P19438 with tags, fused parts or gaps): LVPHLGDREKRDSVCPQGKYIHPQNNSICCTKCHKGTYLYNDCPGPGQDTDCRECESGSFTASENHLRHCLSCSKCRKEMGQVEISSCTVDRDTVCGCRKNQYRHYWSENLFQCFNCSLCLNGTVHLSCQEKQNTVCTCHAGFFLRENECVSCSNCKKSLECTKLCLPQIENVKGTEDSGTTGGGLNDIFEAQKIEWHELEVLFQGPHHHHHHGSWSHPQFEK
How it was run: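 Readout is the 665/615 nm TR-FRET ratio (Eu anti-His donor, streptavidin-Alexa647 acceptor), normalized to DMSO and saturating displacer, fit by Morrison-based five-parameter logistic for Kd^app. His-tagged sTNFR1 (1-211) prebound to 100 nM biotinylated peptide SEQ ID NO.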

With CCCC[C@@H]1NC(=O)CSC[C@@H](C(N)=O)NC(=O)[C@H]([C@@H](C)c2c[nH]c3c(OC)cccc23)NC(=O)CN(C)C(=O)[C@H](Cc2ccc(O)cc2)NC(=O)[C@H](Cc2ccc(C(=O)O)cc2)NC(=O)[C@](C)(CO)NC(=O)[C@H](Cc2c[nH]c3c(Cl)cccc23)NC(=O)[C@H](Cc2ccncc2)NC(=O)[C@H](CC(N)=O)NC(=O)[C@H](CCC(=O)O)N(C)C(=O)[C@H](Cc2c[nH]c3ccccc23)NC(=O)[C@@H]2C[C@H](N)CCN2C(=O)[C@H](Cc2ccncc2)NC1=O [SEQ ID NO. 271] ({CH2CO}-[Nle][4Pal][X23]W[NMeE]N[4Pal][Trp(7-Cl)][αMeS][Phe(4-COOH)]Y[Sar][Trp(βS-Me,7-OMe)]C-NH2; thioether N-14) as the compound, how does the pIC50 [1] read?
The pIC50 was 8.57.

What about the pKd [2] of the same compound?
The pKd was 9.02.

CCCC[C@@H]1NC(=O)[C@@H]2CC[C@@H](C2)NC(=O)[C@H]([C@@H](C)c2c[nH]c3c(OC)cccc23)NC(=O)CN(C)C(=O)[C@H](Cc2ccc(C(=O)O)cc2F)NC(=O)[C@H](Cc2ccc(C(N)=O)cc2)NC(=O)[C@](C)(CO)NC(=O)[C@H](Cc2c[nH]c3c(Cl)cccc23)NC(=O)[C@H](Cc2ccc(C(=O)O)cc2F)NC(=O)[C@H](CC(N)=O)NC(=O)[C@H]2C[C@H](O)CN2C(=O)[C@H](Cc2c[nH]c3ccccc23)NC(=O)[C@@H]2CC[C@@H](O)CN2C(=O)[C@H](Cc2ccncc2)NC1=O [SEQ ID NO. 41] (cyclo([4Pal][Pip(5R-OH)]W[dHyp]N[Phe(2-F,4-COOH)][Trp(7-Cl)][αMeS][Phe(4-CONH2)][Phe(2-F,4-COOH)][Sar][Trp(βS-Me,7-OMe)][X1][Nle])) was tested. Which pIC50 [1] did it give?
Its pIC50 is 9.22.

What about the pKd [2] of the same compound?
The pKd was 10.15.

With C[C@@H](c1c[nH]c2ccccc12)[C@@H]1NC(=O)CN(C)C(=O)[C@H](Cc2ccc(CN)cc2)NC(=O)[C@H](Cc2ccc(C(=O)O)cc2)NC(=O)[C@](C)(CO)NC(=O)[C@H](Cc2ccc3ccccc3c2)NC(=O)[C@H](Cc2ccc(CN)cc2)NC(=O)[C@H](CC(N)=O)NC(=O)[C@H]2CCCN2C(=O)[C@H]([C@@H](C)c2c[nH]c3ccccc23)NC(=O)[C@H](CO)NC(=O)[C@H](Cc2ccc(CN)cc2)NC(=O)[C@H](CCCNC(N)=O)NC(=O)CSC[C@@H](C(N)=O)NC1=O [SEQ ID NO. 206] ({CH2CO}-[Cit][Phe(4-CH2NH2)]S[Trp(βS-Me)][dP]N[Phe(4-CH2NH2)][2Nal][αMeS][Phe(4-COOH)][Phe(4-CH2NH2)][Sar][Trp(βS-Me)]C-NH2; thioether N-14) as the compound, how does the pIC50 [1] read?
Its pIC50 is 6.57.

And the pIC50 ([2]; displacement of biotinylated peptide SEQ ID NO. 1 from sTNFR1, weaker binders, 10 pts titration, 4-parameter logistic model, read-out: TR-FRET, IC50)?
Its pIC50 is 7.59.

With CCCC[C@@H]1NC(=O)[C@@H]2CC[C@@H](C2)NC(=O)[C@H]([C@@H](C)c2c[nH]c3c(OC)cccc23)NC(=O)CN(C)C(=O)[C@H](Cc2ccc(CN)cc2)NC(=O)[C@H](Cc2ccc(C(N)=O)cc2)NC(=O)[C@](C)(CO)NC(=O)[C@H](Cc2c[nH]c3c(C#N)cccc23)NC(=O)[C@H](Cc2ccc(C(=O)O)cc2)NC(=O)[C@H](CC(N)=O)NC(=O)[C@H]2C[C@H](O)CN2C(=O)[C@H](Cc2c[nH]c3ccccc23)NC(=O)[C@@H]2CC[C@@H](O)CN2C(=O)[C@H](Cc2ccncc2)NC1=O [SEQ ID NO. 48] (cyclo([4Pal][Pip(5R-OH)]W[dHyp]N[Phe(4-COOH)][Trp(7-CN)][αMeS][Phe(4-CONH2)][Phe(4-CH2NH2)][Sar][Trp(βS-Me,7-OMe)][X1][Nle])) as the compound, how does the pIC50 [1] read?
Its pIC50 is 9.15.

What about the pKd ([2]; displacement of biotinylated peptide SEQ ID NO. 1 from sTNFR1, 20 point titration, 5-parameter fit based on Morrison equation (tight binding), read-out: TR-FRET Kd^app) of the same compound?
Its pKd is 9.82.

CCCC[C@@H]1NC(=O)[C@@H]2CC[C@@H](C2)NC(=O)[C@H]([C@@H](C)c2c[nH]c3c(OC)cccc23)NC(=O)CN(C)C(=O)[C@H](Cc2ccc(O)cc2)NC(=O)[C@H](Cc2ccc(C(N)=O)cc2)NC(=O)[C@](C)(CO)NC(=O)[C@H](Cc2c[nH]c3c(Cl)cccc23)NC(=O)[C@H](Cc2ccncc2)NC(=O)[C@H](CC(N)=O)NC(=O)[C@H](CCC(=O)O)N(C)C(=O)[C@H](Cn2ncc3ccccc32)NC(=O)[C@@H]2CC[C@@H](O)CN2C(=O)[C@H](Cc2ccncc2)NC1=O [SEQ ID NO. 74] (cyclo([4Pal][Trp(7-Cl)][αMeS][Phe(4-CONH2)]Y[Sar][Trp(βS-Me,7-OMe)][X1][Nle][4Pal][Pip(5R-OH)][Ala(indazol-1-yl)][NMeE]N)) was tested. Which pIC50 [1] did it give?
The pIC50 was 9.30.

What about the pKd [2] of the same compound?
Its pKd is 10.10.
